# Assay results reported in patent KR20140134170A, “신경염증 질환의 예방 또는 치료용 약학 조성물” (이화여자대학교 산학협력단, priority 2013, dated 2014).
# Columns and labels:
# [1] = tested on: microglia [소교세포]; assay: Microglial activation in cerebral cortex of LPS systemic inflammation mice (Iba1 immunofluorescence); assay type: in vivo, mouse; conditions: 3 h after LPS
# [2] = tested on: microglia [소교세포]; assay: Microglial activation in ischemic stroke model MCAo/Rep (Iba-1 immunohistochemistry); assay type: in vivo, rat; conditions: 5 mg/kg i.p. once immediately after reperfusion; stroke hemisphere; 22 h after reperfusion; stroke control 138.8±7.4; P<0.01
# [3] = tested on: TNF-α; assay: TNF-α producing cells in ischemic stroke model MCAo/Rep (immunohistochemistry); assay type: in vivo, rat; conditions: 5 mg/kg i.p. once immediately after reperfusion; stroke hemisphere; 22 h after reperfusion; stroke control 648.3±64.70; P<0.05
# [4] = tested on: JNK; assay: JNK activation in LPS-activated BV2 microglia (western blot, p-JNK); assay type: cell-based, mouse; conditions: LPS 100 ng/ml 3 h, compound 1 h before LPS
# [5] = Brain infarct volume in ischemic stroke model MCAo/Rep (TTC staining); assay type: in vivo, rat; conditions: 5 mg/kg i.p. once immediately after reperfusion, 22 h after reperfusion
# [6] = tested on: NF-κB; assay: NF-κB DNA complex formation in LPS-activated BV2 microglia (EMSA); assay type: cell-based, mouse; conditions: LPS 100 ng/ml 3 h, compound 1 h before LPS
# [7] = tested on: TNF-α; assay: TNF-α protein expression in cerebral cortex of LPS systemic inflammation mice (western blot); assay type: in vivo, mouse; conditions: 3 h after LPS, vs vehicle
# [8] = tested on: p38; assay: p38 activation in LPS-activated BV2 microglia (western blot, p-p38); assay type: cell-based, mouse; conditions: LPS 100 ng/ml 3 h, compound 1 h before LPS
# [9] = tested on: TNF-α; assay: Cerebrospinal fluid TNF-α in LPS systemic inflammation mice (sandwich ELISA); assay type: in vivo, mouse; conditions: vs vehicle
# [10] = tested on: nitric oxide [산화질소]; assay: Nitric oxide production by LPS-activated BV2 microglia (Griess reaction); assay type: cell-based, mouse; conditions: LPS 100 ng/ml, compound 1 h before LPS
# [11] = tested on: TNF-α; assay: TNF-α release from LPS-activated BV2 microglia (sandwich ELISA); assay type: cell-based, mouse; conditions: LPS 100 ng/ml, compound 1 h before LPS
# [12] = tested on: MK2; assay: MK2 activation in LPS-activated BV2 microglia (western blot, p-MK2); assay type: cell-based, mouse; conditions: LPS 100 ng/ml 3 h, compound 1 h before LPS
# [13] = Neurological score in ischemic stroke model MCAo/Rep; assay type: in vivo, rat; conditions: 5 mg/kg i.p. once immediately after reperfusion; vs control; P=0.0047
# [14] = tested on: AP-1; assay: AP-1 DNA complex formation in LPS-activated BV2 microglia (EMSA); assay type: cell-based, mouse; conditions: LPS 100 ng/ml 3 h, compound 1 h before LPS
# [15] = tested on: IL-6; assay: IL-6 production by LPS-activated BV2 microglia (sandwich ELISA); assay type: cell-based, mouse; conditions: LPS 100 ng/ml, compound 1 h before LPS
# [16] = tested on: TNF-α; assay: Serum TNF-α in LPS systemic inflammation mice (sandwich ELISA); assay type: in vivo, mouse; conditions: 3 h after LPS
# [17] = tested on: IL-10; assay: IL-10 production by LPS-activated BV2 microglia (sandwich ELISA); assay type: cell-based, mouse; conditions: LPS 100 ng/ml, compound 1 h before LPS
# [18] = tested on: IL-1β; assay: IL-1β protein expression in cerebral cortex of LPS systemic inflammation mice (western blot); assay type: in vivo, mouse; conditions: 3 h after LPS, vs vehicle
# [19] = tested on: intracellular reactive oxygen species [세포내 활성산소종 (reactive oxygen species; ROS)]; assay: Intracellular reactive oxygen species in LPS-activated BV2 microglia (H2DCF-DA fluorescence); assay type: cell-based, mouse
# [20] = tested on: brain cells [뇌세포]; assay: Brain cell damage in ischemic stroke model MCAo/Rep (Nissl staining); assay type: in vivo, rat; conditions: 5 mg/kg i.p. once immediately after reperfusion; cortex and striatum; 22 h after reperfusion
# [21] = tested on: ERK; assay: ERK activation in LPS-activated BV2 microglia (western blot, p-ERK); assay type: cell-based, mouse; conditions: LPS 100 ng/ml 3 h, compound 1 h before LPS
smiles,measurement,setting,value
"COc1ccc(S(=O)(=O)N2Cc3ccccc3C[C@@H]2C(=O)NO)cc1 [본 발명의 화합물, (3R)-(+)-[2-(4-메톡시벤젠설포닐)-1,2,3,4-테트라하이드로이소퀴놀린-3-하이드록사메이트]",number of activated microglia,"[1]; 1 mg/kg i.p., vs vehicle",비이클 투여와 차이가 없었으나
same,number of activated Iba1-labelled cells (microglia),"[1]; 5 mg/kg i.p., area 500 μm2, control 10.12±1.45, LPS 41.17±2.95, p<0.01 vs vehicle",20.0±3.82
same,number of activated microglia,[2],47.67±10.73 cells
same,number of TNF-α producing cells,[3],402.8±74.73 cells
same,activated JNK,[4],농도 의존적으로 감소함
same,infarct volume (infarct volume / whole brain volume × 100),[5]; MCAo/Rep control 29.17%,18.90%
same,decrease of infarct size vs control,[5]; P=0.0452,~35.21%
same,NF-κB complex formation,[6],감소됨
same,TNF-α expression in cerebral cortex,[7]; 1 mg/kg i.p.,비이클 투여와 차이가 없었으나
same,decrease of TNF-α expression in cerebral cortex,[7]; 5 mg/kg i.p.,40%
same,activated p38,[8],농도 의존적으로 감소함
same,cerebrospinal fluid TNF-α level,[9]; 1 mg/kg i.p. daily from 4 days before LPS,통계적으로 의미있는 TNF-α발현 감소
same,cerebrospinal fluid TNF-α level,[9]; 5 mg/kg i.p. daily from 4 days before LPS,통계적으로 의미있는 TNF-α발현 감소
same,nitric oxide production,[10],농도 의존적으로 억제됨
same,TNF-α production,[11],현저하게 감소됨
same,activated MK2,[12],농도 의존적으로 감소함
same,neurological score (maximum 18),[13],유의적 감소
same,AP-1 complex formation,[14],감소됨
same,IL-6 production,[15],농도 의존적으로 억제됨
same,serum TNF-α level,[16]; 5 mg/kg i.p. daily from 4 days before LPS 5 mg/kg i.p.,현저히 감소
same,serum TNF-α level,"[16]; 1 and 5 mg/kg i.p. daily from 4 days before LPS 5 mg/kg i.p., dose dependence",용량의존적으로 TNF-α수준이 감소
same,IL-10 production,[17],생성을 증가시키는 것
same,IL-1β expression in cerebral cortex,[18]; 1 mg/kg i.p.,비이클 투여와 차이가 없었으나
same,decrease of IL-1β expression in cerebral cortex,[18]; 5 mg/kg i.p.,50%
same,intracellular reactive oxygen species,"[19]; compound at 10 μM or more, compared with control",대조군과 유사한 수준으로 감소됨
same,intracellular reactive oxygen species,[19]; concentration dependence,농도 의존적으로 억제함
same,brain cell damage by stroke,[20],극명하게 감소
same,activated ERK,[21],농도 의존적으로 감소함
